According to patent US8337828B2, “Use of thymosin alpha 1, alone or in combination with PTX3 or ganciclovir, for the treatment of cytomegalovirus infection” (priority 2006, dated 2012):
Ends that are not written are not given here.

Legend:
IRF7 = experiment: Immunoblot analysis of nuclear IRF7 in DC subsets; assay type: cell-based, BALB/c mice; conditions: pDC, 50 μg/ml, alone or in combination with virus
Protocol: (§1) (FIG. 3a) CD11b+DC or pDC were generated from bone marrow of BALB/c mice, infected with MCMV and assessed for morphology by light microscopy and viral replication by real-time PCR of MCMV gB transcripts expression (both at 48 h) or for IRF7 nuclear expression by immunobloting with anti-IRF7 (2 h later). Cells were exposed (+) or not (−) to 50 μg/ml Thymosin alpha 1 for 2 h at 37° C. before infection. − represents uninfected cells. The results shown represent one representative experiment out of 3.
Immunoblot analysis of IRF7. DC were exposed for […] 50 μg/ml Thymosin alpha 1 or 10^5 PFU MCMV, either alone or in combination. Nuclear extracts were prepared with NE-PER nuclear and cytoplasmic extraction reagents (Pierce, Celbio S.r.l., Milan, Italy) and the protein concentration of the nuclear extracts was determined with a BCA-200 protein assay kit (Pierce) following the manufacture's instructions. Nuclear content of IRF7 was determined by Western blot using rabbit anti-IRF7 (H246) antibody and bovine anti-rabbit-horseradish peroxidase (Santa Cruz Biotechnology). Visualization was performed with the ECL Western blotting analysis system from Amersham and Kodak Biomax films.

MCMV = experiment: Viral replication in DC subsets (real-time PCR of MCMV gB transcripts); assay type: cell-based, BALB/c mice; conditions: 50 μg/ml for 2 h before infection, 48 h
Protocol: as §1
DC subset generation. DC were obtained by culturing 10^6/ml BALB/c bone marrow cells in Iscove's modified medium, containing 10% filtered bovine serum, 50 μM 2-mercaptoethanol, sodium pyruvate (1 mM), 2 mM L-glutamine, HEPES (10 mM), and 50 μg/ml gentamycin in the presence of 150 U/ml mouse rGM-CSF (Sigma) and 75 U/ml rIL-4 (R&D Systems) for 7 days to obtain CD11b+DC or 200 ng/ml FLT3-L (Immunex Corporation, Seattle, Wash.) for 9 days to obtain pDC. […]
Inhibition of viral replication. […] Infectivity was measured 48 h later.
Real time RT-PCR for quantification of MCMV mRNA. […]

[1] = tested on: human non-small cell lung cancer ("NSCLC") cells; conditions: subcutaneous administration; cited from earlier work

For “Ac-Ser-Asp-Ala-Ala-Val-Asp-Thr-Ser-Ser-Glu -Ile-Thr-Thr-Lys-Asp-Leu-Lys-Glu-Lys-Lys-Glu-Val-Glu-Glu-Ala-Glu-Asn-O (Ac-SDAAVDTSSEITTKDLKEKKEVEEAEN) [Thymosin alpha 1, acidic peptide present in thymus extract with immunoregulatory properties]”, the “nuclear IRF7 expression (translocation)” value (IRF7) was “translocation of IRF7”, the viral replication (MCMV; CD11b+DC) was “not affected” and the viral replication (MCMV; pDC) was “actually promoted”. For the same substance, the tumor volume [1] was “significantly decreased tumor volume”.
